The record followed here is patent EP1574213B1, “Use of histone deacetylase inhibitors for increasing therapeutic gain in radiotherapy and chemotherapy” (Asan Laboratories Company (Cayman), Limited, priority 2004, dated 2005).

Assay [1] relates to irradiated skin. Description: Radiation-induced skin reaction after 40Gy, gross skin score and H&E histology. Conditions: for radiation-induced skin damage including acute dermatitis and desquamation, and late fibrosis, ulceration and necrosis: in words. It counts as in vivo, Sprague Dawley (SD) rats. Here is the method:
Adult female Sprague Dawley (SD) rats were purchased from the animal center of the National Science Council of Taiwan, and weighed 250-300g at the time of irradiation. Each rat was caged alone and allowed chow and water. They were anesthetized with pentobarbital 50mg/kg i.p. before irradiation. The skin over gluteal area was shaved completely and radiation fields with 2-cm diameter were outlined with a marking pen just prior to irradiation. An electron beam with 6MeV energy produced by a linear accelerator was used. The dose was delivered on Day 0 at 4Gy/min up to 40Gy to the prepared area. Each group treated with a histone deacetylase inhibitor was further divided into three subgroups animals (5 each) : one subgroup treated with skin irradiation followed by vehicle, another with skin irradiation followed by a histone deacetylase inhibitor, and the third with skin irradiation only. Then vaseline (negative control), madecassol ointment (positive control), or either vehicles or the 1% phenylbutyrate cream, 1% valproic acid cream, or 0.1% trichostatin A ointment were applied topically to the irradiated skin twice daily from Day 1 to Day 90 after irradiation. The mean dosage for each treatment in the respective groups was 16mg vaseline per cm^2 skin, 16mg madecassol per cm^2 skin, 50mg phenylbutyrate per cm^2 skin, 50mg valproic acid per cm^2 skin, 5mg trichostatin A per cm^2 skin, and an equivalent amount of the vehicle base for the control groups. The gross skin reactions were evaluated in all rats. Acute skin reactions were evaluated and scored every other day until the 90th day after irradiation using the modified skin score system (Abe Y. and Urano M. Fraction size-dependent acute skin reaction of mice after multiple twice-a-day doses. International Journal of Radiation Oncology, Biology, Physics. 18(2):359-64, 1990): 0=normal, 0.5=slight epilation, 1.0=epilation in about 50% of the radiated area, 1.5=epilation in greater than 50% of the area, 2.0=complete epilation, 2.5=complete epilation with definitive edema or dry desquamation in more than 50% of the area, 3.0=moist desquamation in a small area, 3.5=moist desquamation in most of the area.
The skin score increases with more severe skin reaction. On Day 11, the skin reactions in the groups treated with madecassol (positive control) or histone deacetylase inhibitors were less marked than those in the negative or vehicle control groups. By day 21, the epilation in the negative or vehicle groups had progressed to wet desquamation in most areas whereas in the madecassol or histone deacetylase inhibitor groups, it improved, and epithelium healing had begun quickly. […]

The test system of assay [2] is TGF-β1, TGF-β2, and TNF-α. Description: Cytokine mRNA in irradiated skin (RNase protection assay, northern blot). It is filed as in vivo, rats. Conditions: for radiation-induced TGF-β1, TGF-β2, and TNF-α expression: northern blot, irradiated skin. Here is the method: (§1) The timing of the peak appearance of TGF-β1, TGF-β2, and TNF-α expression levels induced by radiation correlated with the beginning of development of radiation-induced damage (FIG. 4). Levels of TGF-β1, TGF-β2, TGF-β3, and TNF-α mRNA were assessed using a multiple cytokine RNase protection assay kit (Riboquant; Pharmingen, San Diego, CA) that contained a template set to allow for the generation of a 32P-labeled antisense RNA probe set that hybridized with the target mRNA for TGF-β1, TGF-β2, TGF-β3, TNF-α, and internal control GAPDH. After hybridization of labeled probe to target RNA, unprotected RNA was digested by a ribonuclease (RNase), and protected RNA fragments were resolved on a 6% polyacrylamide gel and recorded by phosphorimaging (Molecular Dynamics Corp., Sunnyvale, CA). Densitometry was used to quantify the amount of each mRNA species and was normalized to the internal control GAPDH.
The means of skin scores for skin reactions from five rats in each group were calculated. The average levels of cytokine/growth factor mRNA from three skin samples in each group were normalized to the internal control GAPDH and expressed as a ratio to the average level in time-matched control groups. The Mann-Whitney test (Stata Statistical Software, College Station, TX) was used to determine statistical significance at the p < 0.05 level for differences in average skin scores and in average mRNA levels, respectively, between treated and control rats.
Total RNA was isolated from frozen skin samples using Trigent (Molecular Research Center Inc., Cincinnati, OH). Total RNA (30 µg) was electrophoresed in a denaturing formaldehyde-agarose gel, blotted onto Hybond N (Amersham, Amersham, UK), and fixed by ultraviolet (UV) irradiation. The membrane was incubated with 32P-labeled probes, as described below, in Rapid-hyb buffer (Amersham). […]

The subject of assay [3] is TGF-β3. Description: TGF-β3 mRNA in irradiated skin (RNase protection assay). It is filed as in vivo, rats. Conditions: Vaseline, vehicle, or PB. Here is the method:
as §1
The means of skin scores for skin reactions from five rats in each group were calculated. The average levels of cytokine/growth factor mRNA from three skin samples in each group were normalized to the internal control GAPDH and expressed as a ratio to the average level in time-matched control groups. […]

In assay [4] the test system is TGF-beta protein. Nature of the assay: Immunofluorescence with anti-TGF-beta1, 2 antibodies in irradiated skin. Conditions: Day 180. It counts as in vivo, rats. From the text:
The same pathological sections in example 4 were subjected to immunofluorescence with the anti-TGF-beta1, 2 antibodies.

Assay [5] relates to TNF-α. Nature of the assay: Immunohistochemistry of TNF-alpha in irradiated skin. Conditions: Day 270. It is filed as in vivo, rats. From the text: The decrease in late radiation-induced skin damage by topical PB was consistent with the suppression of TNF-α expression (FIG. 6).
In assay [6] the test system is radiation-induced tumors. Nature of the assay: Late radiation-induced skin tumor formation. It counts as in vivo, rats. Conditions: 90 weeks, irradiated groups. From the text: The decrease of TGF-β expression caused by PB treatment might decrease the incidence of late radiation-induced tumorigenesis. […] The histology of radiation-induced tumors included fibroma, spindle cell sarcoma, basal cell carcinoma, and squamous cell carcinoma.

The test system of assay [7] is 1MEA7R.1. Description: Cutaneous tumor growth, topical treatment, 1MEA7R.1. It is filed as in vivo, BALB/c mice. Conditions: 4 weeks; 200 mg/mouse twice per day topically. Here is the method:
(§2) The syngeneic carcinoma cells 1MEA7R.1 and CT-26 (purchased from American Type Culture Collection, Manassas, VA) were subcutaneously injected into the flank areas of female BALB/c mice. The tumor was allowed to a maximum dimension of 0.5 cm. Topical HDAC inhibitors or vehicle was applied at a dose of 200 mg/mouse to cover the whole tumor surface and surrounding skin twice per day for 4 weeks. The tumor size was calculated weekly with a caliper according to the formula ab2/2, where a and b are the larger and smaller diameters (in centimeters), respectively.
(§3) The topical PB formulation was show to have antitumor effects. […] Cutaneous tumors were allowed to grow to the largest dimension 0. 5 cm (FIG. 8D), and PB was topically applied to the tumor surface at 200 mg/mouse twice per day. By 4 weeks, the tumor sizes of 1MEA7R.1 and CT-26 carcinomas in the placebo groups were almost 6- and 1.6-fold larger than those in the PB-treated groups, respectively (FIGS. 8B-8C).

Assay [8] relates to CT-26. Description: Cutaneous tumor growth, topical treatment, CT-26. It counts as in vivo, BALB/c mice. Conditions: 4 weeks; 200 mg/mouse twice per day topically. Here is the method:
as §2, §3

Assay [9] has as its system syngeneic carcinoma cells 1MEA7R.1 and CT-26. Description: Direct antitumor effect on cutaneous tumor growth (both tumors, summary). Conditions: withdrawal after 5 weeks of treatment. It counts as in vivo, BALB/c mice. Here is the method:
The syngeneic carcinoma cells 1MEA7R.1 and CT-26 (purchased from American Type Culture Collection, Manassas, VA) were subcutaneously injected into the flank areas of female BALB/c mice. The tumor was allowed to a maximum dimension of 0.5 cm. […] The tumor size was calculated weekly with a caliper according to the formula ab2/2, where a and b are the larger and smaller diameters (in centimeters), respectively.
as §3
The histological findings on skin specimens from 5 irradiated rats in each group are represented as follows: A, subepithelial swelling. B, dry desquamation in more than 50% of the area. C, wet desquamation in more than 50% of the area. D, atrophy of epidermis in most areas. E, atrophy of skin appendages in most areas. F, increased thickness of epithelium with more cell layers. G, increased collagen deposition, more vessel density, and increased thickness of dermis. H, chronic ulceration, necrosis, bullae formation, and more inflammatory cell infiltrate. […]

Assay [10] deals with p21Cip1. Nature of the assay: p21Cip1 protein level in carcinoma cells in vitro. It counts as cell-based. Conditions: BNL 1MEA7R.1 and CT-26 carcinoma cells; 4 mM PB.
The test system of assay [11] is CNE2 nasopharyngeal carcinoma cells. Nature of the assay: Tumor radiosensitization, colony formation. It is filed as cell-based. Conditions: for Radiation enhancement ratio (RER): 60 minutes prior to radiation, at 10% survival. Here is the method: Radiation enhancement ratio (RER) is used to calculate the ratio of radiation doses that give the same effect. RER= (Radiation dose without drug treatment at 10% survival fraction)/(Radiation dose with drug treatment at 10% survival fraction).
Valproic acid (0.1 mM or 0.5 mM) was added in CNE2 nasopharyngeal carcinoma cells 60 minutes prior to radiation with radiation dose from 2 to 16 Gy, then washed out. After one week, colonies containing more than 50 cells were counted.

Assay [12] has as its system EBV thymidine kinase. Nature of the assay: EBV thymidine kinase activity assay. Conditions: 1 nM for 48 hours; EBV-positive Daudi cells. It counts as cell-based, Epstein-Barr virus (EBV). Here is the method:
For EBV thimidine kinase activity assay, an equal amount of cytosol fraction was incubated with reaction buffer (50mM Tris-HCl pH 7.4, 1mg/ml BSA, 3mM creatine phosphate, 11.2U/ml creatine phosphokinase, 0.1µm [3H-8]-GCV (specific activity 13.5 Ci/mmol), 2.5mM ATP, 2.5mM MgCl2, 10mM NaF, 10mM DTT) at 37°C for 30 mins. The reaction mixtures were added on WhatmanR DE-81 ion exchange chromatography papers, which were then washed with 1.5mM NH4COOH three times to remove unphosphorylated form of [3H-8]-GCV. After air dry, these papers were incubated with liquid scintillation cocktail overnight. The phosphorylation form of [3H-8]-GCV bound on WhatmanR DE-81 ion exchange chromatography paper was measured by LS6500 scintillation counter (Beckman).
The combination of TSA, GCV and radiation produced selectively maximal death in EBV-positive cells but not in EBV-negative cells (FIG. 11B). Daudi cells (EBV+) and HL-60 (EBV-) were treated with ganciclovir (GCV) (10 µg/ml) and /or trichostatin A (TSA) (1 nM) for 48 hours, then radiated with or without 1 Gy radiation (RT). Viable cells were counted 1 week later.

For `O=C(O)CCCc1ccccc1` [PB, Phenylbutyrate], the “rats showing chronic ulceration, necrosis, bullae formation, and inflammatory cell infiltration” value in assay [1] (Day 270) is given as “zero of five”. For the same molecule, the “radiation-induced skin damage including acute dermatitis and desquamation, and late fibrosis, ulceration and necrosis” value in assay [1] was “suppressing”. Further, the “mRNA levels of TGF-β1, TGF-β2, and TNF-α” value in assay [2] (Day 28-35 after irradiation) is “returned to the non-irradiated control levels”. The “differences in TGF-β3 mRNA levels between irradiated groups” value in assay [3] is listed as “No significant differences”. In assay [4], the “expression of TGF-beta” value is reported as “suppressed effectively”. In addition, in [5], the TNF-α expression result is reported as “suppression”. This molecule also gave a cumulative tumor incident in [6] of 0%. For the same molecule, the “tumor size in the placebo group relative to the PB-treated group” value is about 6 fold in assay [7] and about 1.6 fold in assay [8]. Moreover, the “time to reach the same size as control or placebo tumors after withdrawal” value in assay [9] is listed as at most 2 weeks. Besides, in assay [10], the p21Cip1 result is on record as “up-regulation”. Also, the plating efficiency result in assay [11] (versus control) was “the same”.

`CCCC(CCC)C(=O)O` [Valproic acid]: the “radiation-induced skin damage including acute dermatitis and desquamation, and late fibrosis, ulceration and necrosis” value in assay [1] is “suppressing”. The “radiation-induced TGF-β1, TGF-β2, and TNF-α expression” value in assay [2] is “decreased”. The “Radiation enhancement ratio (RER)” value in assay [11] (0.1 mM) was 1.2; in assay [11] (0.5 mM), 1.7.

As to `CC(/C=C/C(=O)NO)=C\[C@@H](C)C(=O)c1ccc(N(C)C)cc1` [TSA, Trichostatin A], the “radiation-induced skin damage including acute dermatitis and desquamation, and late fibrosis, ulceration and necrosis” value in [1] is given as “suppressing”. Also, the “radiation-induced TGF-β1, TGF-β2, and TNF-α expression” value in assay [2] is on record as “decreased”. The “EBV thymidine kinase activity” value in assay [12] is given as “up-regulated”.
